# Test results: EP4678638A1, “NEW E3 UBIQUITIN LIGASE LIGAND, PROTEIN DEGRADATION AGENT AND USE THEREOF” (priority 2023, dated 2024)
# Like-named read-outs stand apart in the source and are kept apart here.
# How the values were obtained:
# [1] = test system: SR; experiment: CCK-8 proliferation, SR; type: cell-based, Human; details: Homo sapiens
# Procedure, shortened: (§1)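 Tumor cells were cultured at 37°C with 5% CO2, seeded, and after 24h treated with compounds at 10 concentrations starting at 10µM (5-fold serial dilutions).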
# [2] = test system: LNcap; experiment: CCK-8 proliferation, LNcap; type: cell-based; details: Homo sapiens; Table B10, compounds designed based on the IRAK4 inhibitors; Lncap cells; read-out: Inhibitory activity (IC50, nM) on tumor cell proliferation, Lncap
# Method: (§2) The tumor cells used herein were cultured in a cell culture medium listed in table A1 at 37°C in an incubator with 5% CO2. Prior to experimentation, all cell lines used were correctly identified by STR profiling, and tested negative for mycoplasma contamination using a mycoplasma detection kit through routine screenings. Table A1. Tumor cells and cell culture medium used in the present disclosure
# (§3) IC50 values of the compounds of the present disclosure (including the compounds in Table 1, and compounds of examples) were measured using the Meilun Cell Counting Kit-8 kit from Dalian Meilun Biotech Co., Ltd. Assay details are as follows: tumor cells were seeded in a 96-well plate at a density listed in Table A2. After 24h, 100 µL of the inoculated cells were treated with 0.5µL of the compounds of the present disclosure (including the compounds in Tables 1 and 2, and compounds of examples) at 10 different successively decreasing concentrations (starting at the highest concentration of 10µM; 5-fold serial dilutions). After the cells were treated with the compounds of the present disclosure for a period of time, the cell viability detection reagent was added to the culture medium for cell viability assessment according to the instructions provided with the CCK-8 kit. […] The growth inhibition of the compounds of the present disclosure on cells was plotted by Prism Graphpad software, and the IC50 values of the compounds of the present disclosure were calculated therefrom. […] Seeding protocol and treatment time for tumor cells
# [3] = test system: CCRF-CEM; experiment: CCK-8 proliferation, CCRF-CEM; type: cell-based, Human; details: Homo sapiens
# Procedure, shortened: as §1
# [4] = test system: Jurkat; experiment: CCK-8 proliferation, Jurkat; type: cell-based, Human; details: Homo sapiens; Table B10, compounds designed based on the IRAK4 inhibitors; Jurkat cells; read-out: Inhibitory activity (IC50, nM) on tumor cell proliferation, Jurkat
# Procedure, shortened: as §1
# [5] = test system: MV-4-11; experiment: CCK-8 proliferation, MV-4-11; type: cell-based, Human; details: Homo sapiens, MV4-11
# Procedure, shortened: as §1
# [6] = test system: 22RV1; experiment: CCK-8 proliferation, 22RV1; type: cell-based; details: Homo sapiens, 96 hours, read-out: Inhibitory activity (IC50) on tumor cell proliferation, 22RV1
# Method: as §2, §3
# [7] = test system: H1975; experiment: CCK-8 proliferation, NCI-H1975 (H1975); type: cell-based, Human; details: Homo sapiens, NCI-H1975; CCK-8; 96 hours; read-out: Inhibitory activity (IC50) on tumor cell proliferation, H1975
# Procedure, shortened: as §1
# [8] = test system: MM.1S; experiment: CCK-8 proliferation, MM.1S; type: cell-based; details: Homo sapiens, MM1.S
# Procedure, shortened: as §1
# [9] = test system: MCF7; experiment: CCK-8 proliferation, MCF7 (MCF-7); type: cell-based; details: Homo sapiens, MCF7; CCK-8; read-out: Inhibitory activity (IC50) on tumor cell proliferation, MCF7
# Procedure, shortened: as §1
# [10] = test system: Kasumi-1; experiment: CCK-8 proliferation, Kasumi-1; type: cell-based, Human; details: Homo sapiens, Kasumi 1, 72 hours, read-out: Inhibitory activity (IC50) on tumor cell proliferation, Kasumi-1
# Procedure, shortened: as §1
# [11] = test system: MM.1R; experiment: CCK-8 proliferation, MM.1R; type: cell-based; details: CCK-8, 72 hours, read-out: Inhibitory activity (IC50) on tumor cell proliferation, MM.1R
# Method: as §2, §3
# [12] = molecular target: T1, IRAK4 (Homo sapiens, UniProt Q9NWZ3); experiment: Western blot degradation of IRAK4 (hPBMC); type: cell-based; details: Table D1
# T1 construct: evaluate the effects of the compounds of the present disclosure on the expression of target proteins in cells; endogenous in cells; host or cells: hPBMC
# T1 sequence (Q9NWZ3 1-460): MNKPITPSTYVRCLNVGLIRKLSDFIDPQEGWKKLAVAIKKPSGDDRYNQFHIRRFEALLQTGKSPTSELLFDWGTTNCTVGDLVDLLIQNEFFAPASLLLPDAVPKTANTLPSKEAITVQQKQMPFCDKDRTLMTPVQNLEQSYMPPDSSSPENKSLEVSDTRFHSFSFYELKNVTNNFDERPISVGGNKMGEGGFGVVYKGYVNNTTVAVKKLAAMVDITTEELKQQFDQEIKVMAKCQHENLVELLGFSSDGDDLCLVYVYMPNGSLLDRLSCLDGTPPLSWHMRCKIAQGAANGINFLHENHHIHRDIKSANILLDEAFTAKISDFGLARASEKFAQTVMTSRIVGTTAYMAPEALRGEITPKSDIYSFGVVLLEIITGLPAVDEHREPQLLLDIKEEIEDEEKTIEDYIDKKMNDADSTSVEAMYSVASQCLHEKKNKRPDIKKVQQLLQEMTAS
# Procedure, shortened: (§4)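 After compound exposure, cells were harvested and lysates run on SDS-PAGE, transferred to nitrocellulose and probed with antibodies. Remaining target (%) was computed from band grayscale relative to an internal control protein and normalised; degradation (%) was 100% minus that.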
# [13] = molecular target: T2, CDK4 (Homo sapiens, UniProt P11802); experiment: Western blot degradation of CDK4 (MDA-MB-231 Cell); type: cell-based; details: Table D3
# T2 construct: evaluate the effects of the compounds of the present disclosure on the expression of target proteins in cells; endogenous in cells; host or cells: MDA-MB-231
# T2 sequence (P11802 whole entry): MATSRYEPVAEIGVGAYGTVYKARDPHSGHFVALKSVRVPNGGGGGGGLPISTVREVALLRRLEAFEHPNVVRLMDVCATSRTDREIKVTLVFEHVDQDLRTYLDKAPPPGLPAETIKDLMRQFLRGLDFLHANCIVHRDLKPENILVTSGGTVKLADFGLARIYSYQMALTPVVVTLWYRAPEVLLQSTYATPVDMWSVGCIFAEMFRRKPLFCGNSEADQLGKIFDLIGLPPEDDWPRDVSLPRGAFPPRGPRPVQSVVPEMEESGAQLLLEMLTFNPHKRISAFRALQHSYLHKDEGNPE
# Procedure, shortened: as §4
# [14] = molecular target: T3, CDK6 (Homo sapiens, UniProt Q00534); experiment: Western blot degradation of CDK6 (MDA-MB-231 Cell); type: cell-based; details: Table D3
# T3 construct: evaluate the effects of the compounds of the present disclosure on the expression of target proteins in cells; endogenous in cells; host or cells: MDA-MB-231
# T3 sequence (Q00534 whole entry): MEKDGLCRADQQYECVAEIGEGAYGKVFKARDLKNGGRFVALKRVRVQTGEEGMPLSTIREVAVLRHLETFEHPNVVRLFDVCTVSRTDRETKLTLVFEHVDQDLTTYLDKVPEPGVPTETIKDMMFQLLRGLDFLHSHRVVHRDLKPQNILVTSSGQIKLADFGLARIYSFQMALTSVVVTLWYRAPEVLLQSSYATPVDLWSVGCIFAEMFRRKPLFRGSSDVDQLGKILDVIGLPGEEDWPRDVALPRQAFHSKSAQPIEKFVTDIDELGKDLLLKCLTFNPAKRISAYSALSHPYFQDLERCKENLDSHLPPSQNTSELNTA
# Procedure, shortened: as §4
# [15] = Table B10, compounds designed based on the IRAK4 inhibitors, SR cells, read-out: Inhibitory activity (IC50, nM) on tumor cell proliferation, SR
# [16] = Table B10, compounds designed based on the IRAK4 inhibitors, CCRF-CEM cells, read-out: Inhibitory activity (IC50, nM) on tumor cell proliferation, CCRF-CEM
# [17] = Table B10, compounds designed based on the IRAK4 inhibitors, MV-4-11 cells, read-out: Inhibitory activity (IC50, nM) on tumor cell proliferation, MV-4-11
# [18] = SR, CCK-8, 72 hours, read-out: Inhibitory activity (IC50) on tumor cell proliferation, SR
# [19] = CCK-8, 72 hours, read-out: Inhibitory activity (IC50) on tumor cell proliferation, MM1S
# [20] = CCRF-CEM, CCK-8, 96 hours, read-out: Inhibitory activity (IC50) on tumor cell proliferation, CCRF-CEM
# [21] = CCK-8, 72 or 96 hours, read-out: Inhibitory activity (IC50) on tumor cell proliferation, MV-4-11
SMILES,"IC50 [1, 15] [nM]",IC50 [2] [nM],"IC50 [3, 16] [nM]",IC50 [4] [nM],"IC50 [5, 17] [nM]",IC50 [6] [nM],IC50 [7] [nM],"IC50 [1, 18] [nM]","IC50 [8, 19] [nM]","IC50 [3, 20] [nM]","IC50 [5, 21] [nM]",IC50 [9] [nM],IC50 [10] [nM],IC50 [11] [µM],Degradation of substrate protein IRAK4 (substrate protein remaining %) [12],"IC50 ([8]; Table B10, compounds designed based on the IRAK4 inhibitors, MM.1S cells, read-out: Inhibitory activity (IC50, nM) on tumor cell proliferation, MM.1S) [nM]",Degradation of substrate protein CDK4 (substrate protein remaining %) [13],Degradation of substrate protein CDK6 (substrate protein remaining %) [14]
"CC(C)Nc1cc(-n2ccc3cc(C#N)cnc32)ncc1C(=O)NC1CCN(Cc2ccc(C3CCC(=O)NC3=O)cc2)CC1 (centres unmarked) [GT-04042, 6-(5-cyano-1H-pyrrolo[2,3-b]pyridin-1-yl)-N-(1-(4-(2,6-dioxopiperidin-3-yl)benzyl)piperidin-4-yl)-4-(isopropylamino)nicotinamide]",500 to 1000,500 to 1000,500 to 1000,500 to 1000,500 to 1000,–,–,–,–,–,–,–,–,–,–,–,–,–
"CN(C)C(=O)c1cc2cnc(Nc3ccc(N4CCNCC4)cn3)nc2n1C1CCCC1 [Ribociclib, reference compound]",–,–,–,–,–,1000 to 5000,> 10000,5000 to 10000,5000 to 10000,> 10000,5000 to 10000,5000 to 10000,1000 to 5000,> 10,–,–,–,–
"O=C1CCC(c2ccc(CN3CCN(c4ccc(-n5cc(NC(=O)c6coc(-c7ccnc(NCC(F)(F)F)c7)n6)c(C(F)F)n5)cc4)CC3)cc2F)C(=O)N1 (centres unmarked) [GT-04274, N-(3-(difluoromethyl)-1-(4-(4-(4-(2,6-dioxopiperidin-3-yl)-3-fluorobenzyl)piperazin-1-yl)phenyl)-1H-pyrazol-4-yl)-2-(2-((2,2,2-trifluoroethyl)amino)pyridin-4-yl)oxazole-4-carboxamide]",–,100 to 500,500 to 1000,500 to 1000,–,–,–,–,–,–,–,–,–,–,A (A is defined as 0% ≤ substrate protein remaining % ≤ 80%),100 to 500,–,–
"CC(=O)c1c(C)c2cnc(Nc3ccc(N4CCNCC4)cn3)nc2n(C2CCCC2)c1=O [Palbociclib, reference compound]",–,–,–,–,–,100 to 500,5000 to 10000,1000 to 5000,> 10000,1000 to 5000,100 to 500,1000 to 5000,1000 to 5000,> 10,–,–,–,–
"Cc1nc2c(F)cc(-c3nc(Nc4ccc(N5CCC(N6CCN(Cc7cccc(N8CCC(=O)NC8=O)c7)CC6)CC5)cn4)ncc3F)cc2n1C(C)C [GT-06740, 1-(3-((4-(1-(6-((5-fluoro-4-(4-fluoro-1-isopropyl-2-methyl-1H-benzo[d]imidazol-6-yl)pyrimidin-2-yl)amino)pyridin-3-yl)piperidin-4-yl)piperazin-1-yl)methyl)phenyl)dihydropyrimidine-2,4(1H,3H)-dione]",–,–,–,–,–,10 to 50,100 to 500,10 to 50,100 to 500,100 to 500,10 to 50,50 to 100,50 to 100,–,–,–,A (A is defined as 0% ≤ substrate protein remaining % ≤ 80%),B (B is defined as substrate protein remaining % > 80%)
"Cc1nc2c(F)cc(-c3nc(Nc4ccc(N5CCC(N(C)Cc6cccc(N7CCC(=O)NC7=O)c6)CC5)cn4)ncc3F)cc2n1C(C)C [GT-06839, 1-(3-(((1-(6-((5-fluoro-4-(4-fluoro-1-isopropyl-2-methyl-1H-benzo[d]imidazol-6-yl)pyrimidin-2-yl)amino)pyridin-3-yl)piperidin-4-yl)(methyl)amino)methyl)phenyl)dihydropyrimidine-2,4(1H,3H)-dione]",–,–,–,–,–,10 to 50,100 to 500,50 to 100,100 to 500,100 to 500,10 to 50,50 to 100,10 to 50,–,–,–,A (A is defined as 0% ≤ substrate protein remaining % ≤ 80%),A (A is defined as 0% ≤ substrate protein remaining % ≤ 80%)
"CC(C)Nc1cc(-n2ccc3cc(C#N)cnc32)ncc1C(=O)NC1CCN(Cc2ccc(C3CCC(=O)NC3=O)c(F)c2)CC1 (centres unmarked) [GT-04043, 6-(5-cyano-1H-pyrrolo[2,3-b]pyridin-1-yl)-N-(1-(4-(2,6-dioxopiperidin-3-yl)-3-fluorobenzyl)piperidin-4-yl)-4-(isopropylamino)nicotinamide]",500 to 1000,500 to 1000,500 to 1000,100 to 500,500 to 1000,–,–,–,–,–,–,–,–,–,–,–,–,–
"Cc1nc2c(F)cc(-c3nc(Nc4ccc(N5CCC(N6CCN(Cc7ccc(N8CCC(=O)NC8=O)cc7)CC6)CC5)cn4)ncc3F)cc2n1C(C)C [GT-06739, 1-(4-((4-(1-(6-((5-fluoro-4-(4-fluoro-1-isopropyl-2-methyl-1H-benzo[d]imidazol-6-yl)pyrimidin-2-yl)amino)pyridin-3-yl)piperidin-4-yl)piperazin-1-yl)methyl)phenyl)dihydropyrimidine-2,4(1H,3H)-dione]",–,–,–,–,–,10 to 50,100 to 500,50 to 100,100 to 500,100 to 500,10 to 50,50 to 100,50 to 100,–,–,–,A (A is defined as 0% ≤ substrate protein remaining % ≤ 80%),B (B is defined as substrate protein remaining % > 80%)
"O=C1CCC(c2ccc(CN3CCC(n4cc(NC(=O)c5coc(-c6ccnc(NCC7CC7)c6)n5)c(C(F)F)n4)CC3)cc2)C(=O)N1 (centres unmarked) [GT-04175, 2-(2-((cyclopropylmethyl)amino)pyridin-4-yl)-N-(3-(difluoromethyl)-1-(1-(4-(2,6-dioxopiperidin-3-yl)benzyl)piperidin-4-yl)-1H-pyrazol-4-yl)oxazole-4-carboxamide]",–,100 to 500,500 to 1000,100 to 500,500 to 1000,–,–,–,–,–,–,–,–,–,A (A is defined as 0% ≤ substrate protein remaining % ≤ 80%),–,–,–
